# Entries after “also recorded” stand apart in the source; their conditions may differ.
# What was measured:
# [1] = test system: SMARCA4-mutant cell lines; assay: Caspase 3/7 apoptosis assay; type: cell-based, human; details: several other models, prolonged exposure
# Description: (§1) Apoptosis was monitored through (a) live cell imaging analysis using the Incucyte Caspase-3/7 Apoptosis Assay (Essen Biosciences, Cat. No. 4440) or through a static time point assessment using the Caspase-Glo 3/7 Assay (Promega, G8090). For Incucyte-based assays (FIG. 4B), 300-600 cells (based on doubling time) were plated in 96-well plates, and at 24 hours, media was replaced with EPZ-6438-containing media at the indicated concentrations and Caspase 3/7 reagent (Essen Bioscience). Fresh media containing EPZ-6438 and Caspase 3/7 reagent was replaced every 3 to 4 days. Phase contrast and fluorescent images were collected every 3 hours, and the number of fluorescent objects were counted and analyzed according to the Incucyte protocol. Data are presented as Caspase 3/7 fluorescent counts normalized to DMSO control at the indicated time points. For determination of apoptosis by Caspase-Glo (FIG. 18C, 19G), TO[…] cells were plated at 500 cells per well in a 96 well plate and treated with the indicated concentrations of EPZ-6438 for 6 days. Caspase 3/7 activity was measured according to the manufacturer's instructions, and results were normalized to signal in DMSO control wells, when indicated. To evaluate senescence induction, cells were stained for β-galactosidase activity using the Senescence Cells Histochemical Staining Kit (Sigma), according to the manufacturers instructions.
# TOV-112D cells = assay: Caspase 3/7 apoptosis assay; type: cell-based, human
# Description: as §1
# cathepsin B (CTSB) = assay: CTSB transcript and protein expression; type: cell-based, human; details: TOV-112D control cells, 5 μM
# Description: For studies evaluating EPZ-6438 effects, cells were treated with various doses of EPZ-6438 for 6 days. On day 3, fresh medium containing EPZ-6438 was introduced. Cell pellets were lysed in RIPA buffer containing 1M NaCl and homogenized for 3 minutes at speed 10 (NextAdvance, Bullet Blender® 24). 12 μg or 18 μg protein was dissolved in 4-12% bis-Tris or 3-8% Tris-acetate gel and transferred to polyvinylidend difluoride (PVDF) membranes. IRDYE® secondary antibodies were used for detection by an Odyssey Imager (LI-COR). Total RNA was extracted using Qiagen RNeasy Plus Mini kit, according to the manufacturers protocol. Quality control of samples was performed to determine RNA quantity and quality prior to their processing by RNA-seq. The concentration of RNA samples was determined using NanoDrop 8000 (Thermo Scientific) and the integrity of RNA was determined by Fragment Analyzer (Advanced Analytical Technologies). 0.5 μg of total RNA was used as an input material for library preparation using TruSeq RNA Sample Preparation Kit v2 (Illumina). Size of the libraries was confirmed using 2200 TapeStation and High Sensitivity D1K screen tape (Agilent Technologies), and their concentration was determined by qPCR based method using Library quantification kit (KAPA). The libraries were multiplexed and sequenced on Illumina HiSeq2500 (Illumina) to generate 30M of single end 50 base pair reads.
# ARID1A-mutant cell lines = assay: 3D Matrigel culture, acini formation; type: cell-based, human
# Description: Wells of a 24 well plated were coated with 70 μl Matrigel Matrix (Corning) and allowed to congeal at room temperature. Cells (n=5,000) were plated on top of the basement matrix in 400 μl RPMI+10% FBS containing 2% Matrigel matrix. Cells were treated with the respective compounds in 400 μl media to replenish the old media. Colonies were imaged on a Zeiss Axio Observer A1 microscope 10 days after the start of experiment.
# [2] = test system: SMARCA4-mutant cancer cell lines; assay: Clonogenic assay (colony formation)
# TOV-21G tumor xenografts = assay: Xenograft study, tumor growth; type: in vivo, mouse; details: SCID mice, 450 mg/kg BID, 28 days
# Description: (§2) TOV-21G and NCI-H522 cells (American Type Culture Collection, Manassas, Va.) were cultured in vitro and harvested in HBSS:Matrigel (BD Biosciences; Franklin Lakes, N.J.) (1:1, v:v) for subcutaneous inoculation into female mice. TOV-21G cells were inoculated into Fox Chase SCIO® Beige mice (Charles River Laboratories, San Diego, Calif.). NCI-H522 cells were inoculated into BALB/c Nude mice (Vital River Laboratories, Beijing, China). Mice bearing established tumors were separated into groups of equally sized tumors (n=5, minimum) to receive escalating doses of EPZ-6438. EPZ-6438 was formulated once weekly in 0.5% sodium carboxymethylcellulose and 0.1% tween-80 at concentrations needed for target doses in a volume of 0.2 ml. All formulations were stored at 4° C., brought to room temperature, and mixed by vortex before oral administration by gavage twice daily from Day 1 until the end of the study. Tumor volumes were calculated from perpendicular length and width caliper measurements using the formula:
# (§3) Tumor Volume (mm^3)=0.5×(Length×Width^2).
# (§4) A mixed modeling approach was used to analyze the repeated measurement of tumor volumes from the same animals over time. Cubic regression splines were used to fit a nonlinear profile to the time courses of log 2-transformed tumor volumes in each group. Fitting was done via a linear mixed-effects model, using the package “nlme” (version 3.1-97) in R version 2.13.0 (R Development Core Team 2008; R Foundation for Statistical Computing; Vienna, Austria). Fitted tumor volumes were plotted in the natural scale in Prism (version 5.0b for Mac) (GraphPad Software; La Jolla, Calif.).
# NCI-H522 xenografts = assay: Xenograft study, tumor growth; type: in vivo, mouse; details: oral
# Description: as §2, §3, §4
# [3] = test system: mono-, di-, and tri-methylated H3K27; assay: Western blot of H3K27 methylation in cells
# SWI/SNF wild-type models = assay: Clonogenic assay (colony formation); type: cell-based, human; details: panel (n=8) of cell lines wildtype for SWI/SNF complex genes
# Description: (§5) 1,800-5,000 cells were plated in each 6-well plate, according to the doubling time. 24 hours after plating, the medium was removed and replaced with medium containing EPZ-6438 at different concentrations. Fresh medium with EPZ-6438 was replaced every 3 to 4 days until control cells reached confluence to stop culture. For studies evaluating the effect of EZH2 knockout, cells were plated 7 days following puromycin selection. The medium was removed, and cells were washed with PBS and stained with 0.5% crystal violet for 20 minutes at room temperature. Dye was removed, cell monolayers were washed with water, and the plate was washed and photographed.
# [4] = test system: ARID1A-mutant cancer cell lines; assay: Clonogenic assay (colony formation); type: cell-based, human
# Description: as §5
# [5] = test system: SMARCB1-mutant malignant rhabdoid tumor lines; assay: Clonogenic assay (colony formation); type: cell-based, human; details: two SMARCB1-mutant malignant rhabdoid tumor lines
# Description: as §5
# [6] = test system: H3K27me3 at the SMARCA2 promoter; assay: H3K27me3 ChIP-PCR; type: cell-based, human; details: TOV-112D cells
# Description: For each sample, 10×10^6 cells were harvested and washed with 1×PBS. Cells were fixed and sheared following the instructions provided with the truChlP Chromatin Shearing Reagent Kit (Covaris). Cells were fixed for 5 minutes with 1% formaldehyde and then quenched with quenching buffer for 5 minutes. Cells were then washed with cold 2×PBS. Nuclei were isolated and sheared using the Covaris AFA Focused-ultrasonicator for 20 minutes. The IP was conducted with 500 μg sheared chromatin and 10 μg anti-H3K27me3 (Active Motif cat #39155) or anti-Rabbit IgG. The Magna ChIP kit (Millipore) was used for IP. For each IP, a 50 μl mixture of Dynabeads protein A and G (50/50 mix) was incubated with primary antibody for 3 hours. The beads were added to 500 μg of sheared chromatin. The beads and antibodies were incubated overnight at 4° C. The beads were then washed with the following wash buffers: low salt, high salt, LiCI wash buffer, and TE Buffer. DNA was extracted from the beads in ChIP elution buffer with protease K at 64° C. with shaking overnight. DNA was then purified using the QIAquick PCR Purification Kit (Qiagen). DNA was eluted with 30 μl of water. 1.0 μl of eluted DNA was used for each SYBR green PCR reaction. SMARCA2 was amplified using the following primers: forward, […] (SEQ ID NO: 27); reverse, […] (SEQ ID NO: 28). […]
# [7] = test system: H3K27me3 in TOV-21G tumor xenograft tissue; assay: Pharmacodynamic Western blot of xenograft tumor tissue; type: in vivo, mouse; details: day 7, three hours following twice-daily oral administration
# Description: (§6) Plasma and tumor samples for pharmacodynamic analysis were collected from tumor-bearing mice on day 7, 3 hours following the last dose. Tumor tissue was lysed in RIPA buffer containing 1M NaCl and homogenized for 3 minutes at speed 10 (NEXTADVANCE, BULLET BLENDER® 24) prior to Western blotting.
# [8] = test system: H3K27 methylation in NCI-H522 tumor xenograft tissue; assay: as above; type: in vivo, mouse; details: strongest at 450 mg/kg BID; day 7, three hours after dosing
# Description: as §6
# NCI-H522 cells = assay: Edu incorporation (DNA synthesis); type: cell-based, human; details: 8 weeks of treatment, relative to resistant NCI-H1568
# SMARCA2 = SMARCA2 expression (Taqman quantitative RT-PCR, Western blot); details: for induction of SMARCA2 transcript and protein: 6 or 10 days
# [9] = target: SMARCA4-mutant EPZ-6438-sensitive models; assay: Senescence β-galactosidase staining; type: cell-based, human
# Description: as §1
# [10] = test system: SMARCA4-mutant cell lines; assay: Cell morphology after prolonged treatment; type: cell-based, human; details: EPZ-6438-sensitive models, 21 days of treatment, 5 μM
# [11] = OVTOKO and OVISE ARID1A-mutant cell lines
# [12] = COV434, SNU-484 and G401 cells expressing shBRM
# [13] = SMARCA4-mutant cells resistant to EPZ-6438 (H1299, A549)
# [14] = SMARCA4-mutant cells sensitive to EPZ-6438 (SNU-484, TOV112D), dose-dependent
structure (smiles),measurement,setting,value
CCN(c1cc(-c2ccc(CN3CCOCC3)cc2)cc(C(=O)NCc2c(C)cc(C)[nH]c2=O)c1C)C1CCOCC1 [EPZ-6438],apoptosis (caspase 3/7),[1],subpopulations of apoptotic cells
same,dose-dependent induction of apoptosis in cells expressing shBRM,"TOV-112D cells; TOV-112D cells expressing shBRM, 6 days",prevented
same,activation of caspase 3/7 in cells expressing shCTSB,TOV-112D cells; TOV-112D cells expressing shRNAs targeting CTSB,significantly suppressed
same,apoptotic response (caspase 3/7),"TOV-112D cells; TOV-112D cells, seven days of treatment",strong apoptotic response
same,CTSB transcript and protein,cathepsin B (CTSB),strongly upregulated
same,acini formation,ARID1A-mutant cell lines; A2780 cells (positive control),inhibition of both clonogenic growth and acini formation
same,acini formation,ARID1A-mutant cell lines; [11],lack of activity
same,colony formation in cells expressing SMARCA2 shRNA (shBRM),[2]; [12],did not affect the ability of EPZ-6438 to inhibit colony formation
same,dose-dependent inhibition of colony formation in cells expressing shBRM,[2]; TOV-112D cells expressing shBRM,prevented the dose-dependent inhibition of colony formation
same,inhibition in colony formation,"[2]; panel of 11 SMARCA4-mutant cancer cell lines, increasing doses",dose-dependent inhibition in colony formation was observed in a subset
same,tumor growth inhibition,TOV-21G tumor xenografts,tumor growth inhibition
same,tumor growth inhibition (TGI),NCI-H522 xenografts; 450 mg/kg BID,72%
same,inhibition of tumor growth,"NCI-H522 xenografts; twice daily (BID), 30, 100, 450 mg/kg, 23 days",dose-dependent inhibition of tumor growth
same,inhibition of H3K27 methylation in cells expressing shBRM,[3]; [12],no effect on the ability of EPZ-6438 to inhibit H3K27 methylation
same,"inhibition of mono-, di-, and tri-methylated H3K27","[3]; EPZ-6438-sensitive and EPZ-6438-resistant cell lines, dose-dependent, 6-day treatment","inhibited mono-, di-, and tri-methylated H3K27 to a similar extent"
same,activity on colony formation,SWI/SNF wild-type models,No activity; also recorded: No effect
same,inhibition in colony formation,[4]; panel of ARID1A-mutant cancer cell lines,inhibition in colony formation was observed in a subset
same,inhibition in colony formation,[5],inhibition in colony formation
same,association of H3K27me3 with the SMARCA2 gene promoter,[6],significant decrease
same,H3K27me3 in tumor tissue,[7],target inhibition
same,H3K27me3 and H3K27me2 in tumor tissue,[8],reduction of H3K27me3 and H3K27me2
same,DNA synthesis / proliferative state by Edu incorporation,NCI-H522 cells,non-proliferative state; also recorded: inhibition of DNA synthesis
same,induction of SMARCA2 transcript and protein,"SMARCA2; EPZ-6438-resistant SMARCA4-mutant cell lines, 5 μM",but not EPZ-6438-resistant
same,induction of SMARCA2,"SMARCA2; EPZ-6438-sensitive ARID1A-mutant A2780 cells, 5 μM, 6 days",induction of SMARCA2
same,induction of SMARCA2 transcript and protein,"SMARCA2; EPZ-6438-sensitive SMARCA4-mutant cell lines, 5 μM",strong induction
same,SMARCA2 levels,"SMARCA2; SMARCB1-mutant MRT line G401, 6 days, EPZ-6438 5 μM, 5-Aza 1 μM",induction in SMARCA2 levels
same,kinetics of senescence induction (homogenous β-galactosidase expression),[9]; COV434 model,homogenous expression of β-galactosidase by seven days
same,kinetics of senescence induction (homogenous β-galactosidase expression),[9]; NCI-HS22 cells,not observed until a few weeks
same,senescence-associated β-galactosidase expression,"[9]; some SMARCA4-mutant EPZ-6438-sensitive models, most notable in COV434 and NCI-HS22",Increases in senescence-associated β-galactosidase expression
same,morphologic changes (cell flattening and enlargement),[10],pronounced morphologic changes
CCS(=O)(=O)N1CCC([C@@H](C)n2c(C)c(C(=O)NCc3c(OC)cc(C)[nH]c3=O)c3ccccc32)CC1 [CPI-169],acini formation,ARID1A-mutant cell lines; A2780 cells (positive control),inhibition of both clonogenic growth and acini formation
same,acini formation,ARID1A-mutant cell lines; [11],lack of activity
same,colony formation,[2]; [13],no effect
same,colony formation,[2]; [14],inhibited colony formation
same,differential sensitivity of colony formation,[4]; ARID1A-mutant versus ARID1A-WT ovarian cell lines,phenocopied
CC[C@H](C)n1cc(C)c2c(C(=O)NCc3c(C)cc(C)[nH]c3=O)cc(-c3ccc(N4CCNCC4)nc3)cc21 [GSK-126],colony formation,[2]; [13],no effect
same,colony formation,[2]; [14],inhibited colony formation
Nc1ncn([C@H]2C[C@H](O)[C@@H](CO)O2)c(=O)n1 [5-aza-2′-deoxycytidine],SMARCA2 mRNA levels,SMARCA2; SMARCA4-mutant cells with repressed SMARCA2,did not impact
